Where two headings read alike, the source gives them in different places.

In data set [1] the target is T1, TRKA (Homo sapiens (Human), UniProt P04629). As to the kind of experiment: Mobility shift assay, TRKA kinase. The format is biochemical. To be noted: ATP 47.8 μM. An excerpt:
(§1) The operation is described as follows:
(§2) Conversion %_Sample: conversion rate of sample;

In a further data set the target is ROS1 (Homo sapiens (Human), UniProt P08922). Kind of data set: Mobility shift assay, ROS1 kinase. The format is biochemical. To be noted: ATP 26.7 μM.
Excerpt: as §1, §2

In the next data set the target is TRKB (Homo sapiens (Human), UniProt Q16620). As to the kind of experiment: Mobility shift assay, TRKB kinase. To be noted: read-out: TRKB IC50, ATP 71.2 μM.
Another data set addresses TRKC (Homo sapiens (Human), UniProt Q16288). Kind of data set: Mobility shift assay, TRKC kinase. To be noted: read-out: TRKC IC50, ATP 44.4 μM.
The target of data set [2] is T1, TRKA. As to the kind of experiment: HTRF kinase activity assay, TRKA. The format is biochemical. To be noted: 90 μM ATP. The procedure: The IC50 values of the compounds were calculated using XLFIT5 (IDBS) software.
For orientation: TR-FRET usually uses a lanthanide donor and a delayed reading to cut background.

For the next data set, the system named is Ba/F3 LMNA-NTRK1-WT. As to the kind of experiment: Cell proliferation inhibition (CellTiter-Glo), Ba/F3 LMNA-NTRK1-WT. The format is cell-based. To be noted: Mus musculus, BaF3, 72 h, test batch marked *. An excerpt: (§3) 4. Inhibitory Effect of Compounds on the Proliferation of TRK Fusion and Mutant Stable Cell Lines (IC50)
(§4) Six cell lines including Ba/F3 LMNA-NTRK1-WT, Ba/F3 LMNA-NTRK1-G595R, Ba/F3 ETV6-NTRK2-WT, Ba/F3 ETV6-NTRK2-G639R, Ba/F3 ETV6-NTRK2-G639R and Ba/F3 ETV6-NTRK3-G623R were used in this experiment.
(§5) The operation is described briefly as follows:
(§6) The cells in logarithmic growth phase were harvested to ensure that the cell viability was above 90%. […] Then each well containing the cells of the 96-well plate was added the compound solutions, 3 wells for each compound solution, and continued to incubate for another 72 hrs. Then CellTiter-Glo® kit (Promega, Cat #G7572) was used to do the detection. First, the CTG reagent was melted and the cell plate was balanced to room temperature. The same volume of CTG solution was added into each well and vibrated on the shaker for 5 minutes to lyse the cells. The cell plate was kept at room temperature for 20 minutes to stabilize the luminescent signal. […] Cell survival rate (%)=(1umdrug−1ummedium)/(1umcell−lummedium)×100%
A general note: Cellular ATP, detected with luciferase, serves as a proxy for viable cell number.

A further data set relates to Ba/F3 LMNA-NTRK1-G595R. Kind of data set: Cell proliferation inhibition (CellTiter-Glo), Ba/F3 LMNA-NTRK1-G595R. The format is cell-based. To be noted: Mus musculus, BaF3, 72 h, test batch marked *.
Excerpt: as §3, §4, §5, §6

The test system of the next data set is Ba/F3 ETV6-NTRK2-WT. Kind of data set: Cell proliferation inhibition (CellTiter-Glo), Ba/F3 ETV6-NTRK2-WT. The format is cell-based. To be noted: Mus musculus, BaF3, 72 h, read-out: IC50 proliferation Ba/F3 ETV6-NTRK2-WT. On the procedure: as §3
(§7) Six cell lines including Ba/F3 LMNA-NTRK1-WT, Ba/F3 LMNA-NTRK1-G595R, Ba/F3 ETV6-NTRK2-WT, Ba/F3 ETV6-NTRK2-G639R, Ba/F3 ETV6-NTRK2-G639R and Ba/F3 ETV6-NTRK3-G623R were used in this experiment. For the six cell lines, the maximum test concentration of the compound was 1 μM, 1 μM, 10 μM, […], 1 μM and 10 μM, were 3.16-fold gradient diluted to obtain 9 samples.
as §5
(§8) The cells in logarithmic growth phase were harvested to ensure that the cell viability was above 90%. 3000 cell/well were seeded in 96-well plate (Corning, Cat #3603). The cells were incubated overnight with 5% CO2, 95% humidity at 37° C. Then each well containing the cells of the 96-well plate was added the compound solutions, 3 wells for each compound solution, and continued to incubate for another 72 hrs. Then CellTiter-Glo® kit (Promega, Cat #G7572) was used to do the detection. First, the CTG reagent was melted and the cell plate was balanced to room temperature. The same volume of CTG solution was added into each well and vibrated on the shaker for 5 minutes to lyse the cells. The cell plate was kept at room temperature for 20 minutes to stabilize the luminescent signal. The luminescent value was collected by SpectraMax microplate detector (MD, 2104-0010A). […] Cell survival rate (%)=(1umdrug−1ummedium)/(1umcell−lummedium)×100%

In a further data set the test system is Ba/F3 ETV6-NTRK2-G639R. Kind of data set: Cell proliferation inhibition (CellTiter-Glo), Ba/F3 ETV6-NTRK2-G639R. The format is cell-based. To be noted: Mus musculus, BaF3, 72 h, read-out: IC50 proliferation Ba/F3 ETV6-NTRK2-G639R. On the procedure:
as §3, §7, §5, §8

Another data set has as its system Ba/F3 ETV6-NTRK3-WT. As to the kind of experiment: Cell proliferation inhibition (CellTiter-Glo), Ba/F3 ETV6-NTRK3-WT. The format is cell-based. To be noted: Mus musculus, BaF3, 72 h, read-out: IC50 proliferation Ba/F3 ETV6-NTRK3-WT.
Another data set has as its system Ba/F3 LMNA-NTRK3-G623R. Kind of data set: Cell proliferation inhibition (CellTiter-Glo), Ba/F3 LMNA-NTRK3-G623R. To be noted: Mus musculus, BaF3, 72 h, read-out: IC50 proliferation Ba/F3 LMNA-NTRK3-G623R. Format: cell-based.
A short description of data set [3]: Pharmacokinetic analysis in rats. To be noted: male, SD, plasma; rat, PO, 5 mg/kg. Format: in vivo, Male SD rats. The procedure: 6. Pharmacokinetic Analysis
Male SD rats were grouped, each group having 3 rats. […] Animals were fasted overnight from 10 hours before administration to 4 hours after administration. Blood samples were collected at 0.25, 0.5, 1, 2, 4, 8 and 24 hours after administration in the oral group and at 0.083, 0.25, 0.5, 1, 2, 4, 8 and 24 hours after injection in the intravenous group. After isoflurane anesthesia, 0.3 ml whole blood collected through the fundus vein plexus was put into the heparin anticoagulant tube. The sample was centrifuged at 4° C. at 4000 rpm for 5 min. The plasma was transferred into the centrifuge tube and stored at −80° C. until analysis. The extract from the plasma extracted by protein precipitation was analyzed by LC/MS/MS.

Data set [4] in a line: Blood-to-brain distribution in rats. The format is in vivo. To be noted: male, SD, rat, 10 mg/kg single oral gavage. On the procedure:
7. Blood-to-Brain Distribution
Male SD rats were grouped, each group having 12 rats. Each group was given the compound of Examples (10 mg/kg) by single oral gavage. The animals were fasted overnight from 10 hours before administration to 4 hours after administration. The rats were killed at 0.5, 1, 4 and 12 hours after administration, and blood and brain tissues were collected. The samples were centrifuged at 4000 rpm at 4° C. for 5 min and plasma was transferred into the centrifuge tube and stored at −80° C. until analysis. The extract from the plasma extracted by protein precipitation was analyzed by LC/MS/MS.

T1 sequence (P04629 33-796): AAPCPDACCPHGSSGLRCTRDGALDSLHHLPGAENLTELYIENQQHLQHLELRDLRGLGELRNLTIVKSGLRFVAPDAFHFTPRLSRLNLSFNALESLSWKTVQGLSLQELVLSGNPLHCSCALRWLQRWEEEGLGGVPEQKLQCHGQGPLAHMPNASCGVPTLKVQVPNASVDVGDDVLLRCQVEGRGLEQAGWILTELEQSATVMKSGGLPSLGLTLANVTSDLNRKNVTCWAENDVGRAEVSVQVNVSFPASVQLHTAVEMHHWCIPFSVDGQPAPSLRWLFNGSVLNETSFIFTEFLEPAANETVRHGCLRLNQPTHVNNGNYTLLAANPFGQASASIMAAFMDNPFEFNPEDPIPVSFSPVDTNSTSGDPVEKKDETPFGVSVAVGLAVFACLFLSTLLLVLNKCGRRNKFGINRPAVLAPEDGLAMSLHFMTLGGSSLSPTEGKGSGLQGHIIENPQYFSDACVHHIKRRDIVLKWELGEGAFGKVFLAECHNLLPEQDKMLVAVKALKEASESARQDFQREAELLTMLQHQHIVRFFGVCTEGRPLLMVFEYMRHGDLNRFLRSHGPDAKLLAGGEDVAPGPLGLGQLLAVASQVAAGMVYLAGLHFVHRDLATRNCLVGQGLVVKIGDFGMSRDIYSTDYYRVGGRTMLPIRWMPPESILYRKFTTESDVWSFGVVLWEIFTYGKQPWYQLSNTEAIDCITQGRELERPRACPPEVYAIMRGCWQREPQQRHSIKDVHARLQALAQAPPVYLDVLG
Chain of ROS1 (P08922 28-2347): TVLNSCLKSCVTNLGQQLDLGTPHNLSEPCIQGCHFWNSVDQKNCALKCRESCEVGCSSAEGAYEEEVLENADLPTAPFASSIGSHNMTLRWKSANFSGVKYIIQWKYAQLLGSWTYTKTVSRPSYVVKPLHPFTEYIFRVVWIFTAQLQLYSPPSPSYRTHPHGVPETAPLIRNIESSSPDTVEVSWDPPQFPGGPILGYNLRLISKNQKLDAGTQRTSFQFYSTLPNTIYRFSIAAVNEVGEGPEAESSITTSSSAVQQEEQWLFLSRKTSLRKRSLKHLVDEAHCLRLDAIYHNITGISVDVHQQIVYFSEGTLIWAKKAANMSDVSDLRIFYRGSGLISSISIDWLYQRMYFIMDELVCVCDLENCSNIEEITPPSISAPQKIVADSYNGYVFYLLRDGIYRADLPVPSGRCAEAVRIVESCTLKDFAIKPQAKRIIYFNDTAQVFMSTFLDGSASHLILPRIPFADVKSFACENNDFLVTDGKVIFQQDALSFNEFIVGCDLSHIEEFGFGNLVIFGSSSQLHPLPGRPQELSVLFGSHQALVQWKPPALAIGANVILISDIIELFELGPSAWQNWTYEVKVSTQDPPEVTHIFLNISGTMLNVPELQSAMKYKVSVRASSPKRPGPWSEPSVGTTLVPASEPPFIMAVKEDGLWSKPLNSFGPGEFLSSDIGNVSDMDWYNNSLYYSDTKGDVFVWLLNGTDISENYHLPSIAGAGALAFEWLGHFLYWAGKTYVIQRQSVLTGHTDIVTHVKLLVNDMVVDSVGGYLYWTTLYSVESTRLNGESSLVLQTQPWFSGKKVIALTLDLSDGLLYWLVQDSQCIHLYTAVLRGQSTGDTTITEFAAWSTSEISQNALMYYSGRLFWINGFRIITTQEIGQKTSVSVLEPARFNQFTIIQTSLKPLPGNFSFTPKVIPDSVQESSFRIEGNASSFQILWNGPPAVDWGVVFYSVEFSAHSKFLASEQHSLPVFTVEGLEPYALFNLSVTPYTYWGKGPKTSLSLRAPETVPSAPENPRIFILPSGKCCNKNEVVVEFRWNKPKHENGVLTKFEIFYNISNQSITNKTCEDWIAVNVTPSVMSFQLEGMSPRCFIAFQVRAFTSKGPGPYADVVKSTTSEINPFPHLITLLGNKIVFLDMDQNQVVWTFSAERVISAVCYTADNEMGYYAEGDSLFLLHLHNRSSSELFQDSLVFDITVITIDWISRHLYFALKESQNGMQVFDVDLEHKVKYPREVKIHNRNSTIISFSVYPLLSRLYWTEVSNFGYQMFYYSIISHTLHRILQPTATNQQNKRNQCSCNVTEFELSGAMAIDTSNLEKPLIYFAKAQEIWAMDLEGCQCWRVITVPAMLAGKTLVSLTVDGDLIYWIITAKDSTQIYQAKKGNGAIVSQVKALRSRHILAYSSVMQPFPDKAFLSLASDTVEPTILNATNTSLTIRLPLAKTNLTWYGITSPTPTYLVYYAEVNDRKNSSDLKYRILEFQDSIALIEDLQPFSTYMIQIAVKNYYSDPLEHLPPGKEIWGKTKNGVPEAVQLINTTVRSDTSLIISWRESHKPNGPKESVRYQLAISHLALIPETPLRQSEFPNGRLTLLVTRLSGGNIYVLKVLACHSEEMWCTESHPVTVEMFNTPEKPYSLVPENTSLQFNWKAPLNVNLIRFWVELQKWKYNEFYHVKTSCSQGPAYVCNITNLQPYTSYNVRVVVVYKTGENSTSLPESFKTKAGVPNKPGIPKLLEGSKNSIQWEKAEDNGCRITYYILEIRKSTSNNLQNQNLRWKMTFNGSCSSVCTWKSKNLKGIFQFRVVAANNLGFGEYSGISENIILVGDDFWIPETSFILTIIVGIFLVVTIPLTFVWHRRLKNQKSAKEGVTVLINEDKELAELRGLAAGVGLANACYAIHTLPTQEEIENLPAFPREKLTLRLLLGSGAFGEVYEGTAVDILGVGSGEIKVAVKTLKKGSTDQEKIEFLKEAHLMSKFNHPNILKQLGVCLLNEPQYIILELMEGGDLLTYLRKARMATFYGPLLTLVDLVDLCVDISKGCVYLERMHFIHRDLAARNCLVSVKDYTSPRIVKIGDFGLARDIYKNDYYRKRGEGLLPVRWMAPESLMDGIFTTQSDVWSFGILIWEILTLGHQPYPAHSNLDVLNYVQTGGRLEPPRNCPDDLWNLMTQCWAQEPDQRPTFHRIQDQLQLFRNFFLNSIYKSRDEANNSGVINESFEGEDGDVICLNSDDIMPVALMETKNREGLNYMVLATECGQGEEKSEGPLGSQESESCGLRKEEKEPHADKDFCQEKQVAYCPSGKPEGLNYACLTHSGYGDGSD
Chain of TRKB (Q16620 32-822): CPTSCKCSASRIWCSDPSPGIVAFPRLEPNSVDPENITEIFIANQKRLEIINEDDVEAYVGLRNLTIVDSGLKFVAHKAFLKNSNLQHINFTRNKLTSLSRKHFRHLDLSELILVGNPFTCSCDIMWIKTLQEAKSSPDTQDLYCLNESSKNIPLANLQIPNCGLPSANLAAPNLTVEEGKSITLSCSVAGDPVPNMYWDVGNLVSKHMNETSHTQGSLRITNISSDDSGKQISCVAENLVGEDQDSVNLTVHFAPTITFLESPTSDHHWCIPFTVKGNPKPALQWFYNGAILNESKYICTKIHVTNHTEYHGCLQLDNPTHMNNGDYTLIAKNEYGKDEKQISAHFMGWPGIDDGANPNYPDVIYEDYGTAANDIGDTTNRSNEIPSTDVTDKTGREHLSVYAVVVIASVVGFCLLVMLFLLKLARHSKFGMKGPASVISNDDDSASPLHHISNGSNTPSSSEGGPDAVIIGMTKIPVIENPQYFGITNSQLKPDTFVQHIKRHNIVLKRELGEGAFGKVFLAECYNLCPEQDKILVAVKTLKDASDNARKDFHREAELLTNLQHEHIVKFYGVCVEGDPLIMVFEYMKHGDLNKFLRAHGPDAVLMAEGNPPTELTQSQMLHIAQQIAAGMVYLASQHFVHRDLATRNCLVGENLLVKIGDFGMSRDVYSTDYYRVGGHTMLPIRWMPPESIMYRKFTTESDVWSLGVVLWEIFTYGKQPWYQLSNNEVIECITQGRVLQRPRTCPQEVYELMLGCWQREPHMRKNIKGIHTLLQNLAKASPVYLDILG
Chain of TRKC (Q16288 other isoform, or with tags, fused parts or gaps isoform Q16288-3): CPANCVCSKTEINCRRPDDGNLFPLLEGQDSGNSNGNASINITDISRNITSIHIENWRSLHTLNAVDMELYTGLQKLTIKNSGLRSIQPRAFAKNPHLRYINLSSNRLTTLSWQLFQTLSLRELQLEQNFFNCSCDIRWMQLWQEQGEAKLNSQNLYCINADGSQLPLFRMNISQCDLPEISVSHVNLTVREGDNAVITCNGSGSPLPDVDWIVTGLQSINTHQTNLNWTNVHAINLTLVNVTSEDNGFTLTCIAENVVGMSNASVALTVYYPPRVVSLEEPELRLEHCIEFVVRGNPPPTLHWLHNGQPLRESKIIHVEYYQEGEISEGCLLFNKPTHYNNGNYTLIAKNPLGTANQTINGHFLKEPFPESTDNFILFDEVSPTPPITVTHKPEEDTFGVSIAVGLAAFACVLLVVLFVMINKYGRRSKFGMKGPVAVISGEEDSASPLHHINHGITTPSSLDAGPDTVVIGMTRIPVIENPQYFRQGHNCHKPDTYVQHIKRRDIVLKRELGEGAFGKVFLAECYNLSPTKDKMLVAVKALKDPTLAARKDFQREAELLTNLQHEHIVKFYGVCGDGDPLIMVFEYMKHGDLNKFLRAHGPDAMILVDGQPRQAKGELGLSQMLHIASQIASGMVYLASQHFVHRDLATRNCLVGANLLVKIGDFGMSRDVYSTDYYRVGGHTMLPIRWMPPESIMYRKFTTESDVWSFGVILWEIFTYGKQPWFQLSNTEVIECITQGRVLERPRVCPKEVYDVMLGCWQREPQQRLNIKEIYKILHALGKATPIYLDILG
Procedure for TRKB: (§9) The inhibitory activity of compounds on TRKA, TRKB, TRKC and ROS1 kinase was analyzed with Mobility shift assay. The screening platform is MSA based microfluidic chip technology, which applies the basic concept of capillary electrophoresis to microfluidic environment. The substrate used in the experiment is a poly-peptide labeled with fluorescent. Under the catalysis of enzyme in the reaction system, the substrate is transformed into a product, with the charge changed accordingly. MSA technology could detect the substrate and the product with different charge separately.
(§10) The compound powder was dissolved in 100% DMSO (Sigma, Cat. D8418-1l) to prepare a 10 mM storage solution. […] The reaction was carried out at room temperature for 30 min/40 min/20 min/20 min respectively. After the reaction was terminated, the conversion rate was read by Caliper EZ Reader II.
(§11) Conversion %_Min: mean value of negative control, representing the conversion rate without enzyme activity;
(§12) Conversion %_Max: mean value of positive control, which represents the conversion rate reading without compound inhibition.
(§13) Taking the log value of concentration as X axis and the percentage inhibition rate as Y axis, the dose response curve was fitted by the analysis software GraphPad Prism 5, thus the IC50 value of each compound on enzyme activity inhibition was obtained.
Procedure for TRKC: as §9, §10, §11, §12, §13

As to `C[C@@H]1c2cc(F)ccc2OCCOC(=O)c2cnn3ccc(nc23)N1C` [Example 23, (R,1^3E,1^4E)-4^5-fluoro-2,3-dimethyl-5,8-dioxa-2-aza-1(5,3)-pyrazolo[1,5-a]pyrimidina-4(1,2)-benzenacyclononaphan-9-one], the IC50 on TRKA [1] turned out to be 0.39 nM; on ROS1, 4.8 nM; at TRKB, 0.48 nM; at TRKC, 0.63 nM.
Take `Cc1cc(Nc2ncc(Cl)c(Nc3ccccc3S(=O)(=O)C(C)C)n2)c(OC(C)C)cc1C1CCNCC1` [Ceritinib]: on TRKA [2], the IC50 was 182 nM.
`C[C@H]1Nc2ccn3ncc(c3n2)C(=O)OCCSc2ccc(F)cc21` [Example 25, (R,1^3E,1^4E)-4^5-fluoro-3-methyl-8-oxa-5-thia-2-aza-1(5,3)-pyrazolo[1,5-a]pyrimidina-4(1,2)-benzenacyclononaphan-9-one]: the IC50 was determined as 1.1 nM at TRKA [1], 1.2 nM on ROS1, 1.6 nM on TRKB and 1.1 nM on TRKC.
Turning to `C[C@H]1COC(=O)c2cnn3ccc(nc23)N[C@H](C)c2cc(F)ccc2S1` [Example 9, (1^3E,1^4E,3R,6S)-4^5-fluoro-3,6-dimethyl-8-oxa-5-thia-2-aza-1(5,3)-pyrazolo[1,5-a]pyrimidina-4(1,2)-benzenacyclononaphan-9-one], the IC50 was found to be 0.59 nM on TRKA [1], 0.54 nM on ROS1, 0.86 nM on TRKB and 0.76 nM on TRKC.
Molecule `C[C@H]1Oc2cc(cnc2N)-c2c(nn(C)c2C#N)CN(C)C(=O)c2ccc(F)cc21` [Lorlatinib] came in with an IC50 on TRKA [2] of 6.2 nM.
For `C[C@H]1Nc2ccn3ncc(c3n2)C(=O)OCCOc2ccc(F)cc21` [Example 13, (R,1^3E,1^4E)-4^5-fluoro-3-methyl-5,8-dioxa-2-aza-1(5,3)-pyrazolo[1,5-a]pyrimidina-4(1,2)-benzenacyclononaphan-9-one], the IC50 was 0.62 nM at TRKA [1], 1.9 nM on ROS1, 0.9 nM at TRKB and 0.73 nM on TRKC.
In the case of `O=C(Nc1cnn2ccc(N3CCC[C@@H]3c3cc(F)ccc3F)nc12)N1CC[C@H](O)C1` [LOXO-101, reference compound], the IC50 with Ba/F3 LMNA-NTRK1-WT was 47.4 nM; with Ba/F3 LMNA-NTRK1-G595R it was 2170 nM; in the data set on Ba/F3 ETV6-NTRK2-WT (72 hrs, test batch marked *), 75.3 nM; in the data set on Ba/F3 ETV6-NTRK2-G639R (72 hrs, test batch marked *) it was 8.18 µM; in the data set with Ba/F3 ETV6-NTRK3-WT (72 hrs, test batch marked *) it was 6.8 nM.
On to `C[C@H]1Nc2ccn3ncc(c3n2)C(=O)OCC(F)(F)Oc2ccc(F)cc21` [Example 24, (R,1^3E,1^4E)-4^5,6,6-trifluoro-3-methyl-5,8-dioxa-2-aza-1(5,3)-pyrazolo[1,5-a]pyrimidina-4(1,2)-benzenacyclononaphan-9-one], for which the IC50 was found to be 0.56 nM on TRKA [1], 0.29 nM at ROS1, 0.6 nM at TRKB and 0.75 nM at TRKC.
Turning to `C[C@@H]1COc2ccc(F)cc2[C@@H](C)Nc2ccn3ncc(c3n2)C(=O)O1` [Example 6, (1^3E,1^4E,3R,7R)-4^5-fluoro-3,7-dimethyl-5,8-dioxa-2-aza-1(5,3)-pyrazolo[1,5-a]pyrimidina-4(1,2)-benzenacyclononaphan-9-one], the IC50 on TRKA [1] stood at 0.75 nM; at ROS1, 0.78 nM; at TRKB, 1.2 nM; on TRKC, 1.2 nM.
The Cmax is the peak of the concentration-time curve. As a reminder, the Tmax is the time from dosing to the highest level. The term half-life denotes the time needed for the level to fall by half in the phase considered. Read a low half-life as fast loss. Usually Kp stands for tissue or fluid exposure divided by exposure in the circulation. In the case of `C[C@H]1CNC(=O)c2cnn3ccc(nc23)N[C@H](C)c2cc(F)ccc2O1` [TPX-0005, reference compound], the IC50 in the data set with Ba/F3 ETV6-NTRK2-WT turned out to be 2.5 nM; in the data set on Ba/F3 ETV6-NTRK2-G639R, 0.0866 µM; in the data set with Ba/F3 ETV6-NTRK3-WT, 0.8 nM; in the data set with Ba/F3 LMNA-NTRK3-G623R it was 9 nM. For the same molecule, the AUC(0-inf) in data set [3] worked out at 2950 ng·h/mL; in data set [4] (brain, read-out: AUC0-inf Brain) it was 2.35 µM·h; in data set [4] (plasma, read-out: AUC0-inf Plasma), 13.9 µM·h. Further, in data set [3], the Cmax amounted to 503 ng/mL. In addition, the Tmax in data set [3] turned out to be 1.33 h. For the same molecule, the half-life in data set [3] is 213 min. For the same molecule, the Kp in data set [4] (brain/plasma, AUC0-inf ratio) stood at 0.17.
In turn, `CCc1cc2c(cc1N1CCC(N3CCOCC3)CC1)C(C)(C)c1[nH]c3cc(C#N)ccc3c1C2=O` [Alectinib] returned an IC50 on TRKA [2] of 60.4 nM.

The record behind these values is US12129258B2, “Diaryl macrocyclic compound and pharmaceutical composition, and use thereof” (PrimeGene (Beijing) Co., Ltd., priority 2018, dated 2024).
